Assay results published in ChEMBL document CHEMBL4715827, “Structure-guided design of pyridoclax derivatives based on Noxa / Mcl-1 interaction mode” (Eur J Med Chem, 2018).
Values belong to the molecule of their own block, whether it stands above or below them. The source made the active and inactive calls. No cut-off for these calls is given here.

Columns and labels:
[1] = Pro-apoptotic activity in human IGROV1-R10 cells assessed as accumulation at sub G1 phase at 10 uM incubated for 24 hrs by propidium iodide staining based flow cytometry analysis (reference value: 2 % ); format: functional
A2780 [2] = assay: Pro-apoptotic activity in human A2780 cells assessed as increase in caspase3/7 positive cells at 25 uM measured after 24 hrs in presence of ABT-737 by DAPI staining based fluorescence microscopy analysis; format: functional, cell-based
[3] = Pro-apoptotic activity in human IGROV1-R10 cells assessed as accumulation at sub G1 phase at 25 uM incubated for 24 hrs by propidium iodide staining based flow cytometry analysis (reference value: 2.8% ); format: functional
[4] = Pro-apoptotic activity in human IGROV1-R10 cells assessed as accumulation at sub G1 phase at 25 uM incubated for 24 hrs in presence of ABT-737 by propidium iodide staining based flow cytometry analysis (reference value: 21.2% ); format: functional
[5] = Pro-apoptotic activity in human IGROV1-R10 cells transfected with Bcl-xL siRNA assessed as condensed nuclei at 25 uM measured after 24 hrs by DAPI staining based fluorescence microscopy analysis relative to control; format: functional
[6] = Pro-apoptotic activity in human IGROV1-R10 cells assessed as accumulation at sub G1 phase at 15 uM incubated for 24 hrs in presence of ABT-737 by propidium iodide staining based flow cytometry analysis (reference value: 10.8% ); format: functional
IGROV1-R10 [7] = assay: Pro-apoptotic activity in human IGROV1-R10 cells transfected with Bcl-xL siRNA assessed as morphological alteration at 25 uM measured after 24 hrs by DAPI staining based fluorescence microscopy analysis; format: functional, cell-based
[8] = Pro-apoptotic activity in human IGROV1-R10 cells transfected with Bcl-xL siRNA assessed as accumulation at sub G1 phase at 25 uM incubated for 24 hrs by propidium iodide staining based flow cytometry analysis (reference value: 17% ); format: functional
IGROV1-R10 [9] = assay: Pro-apoptotic activity in human IGROV1-R10 cells transfected with Bcl-xL siRNA assessed as increase in cleaved caspase-3 expression at 25 uM measured after 24 hrs by Western blot analysis; format: functional, cell-based
SK-OV-3 [10] = assay: Pro-apoptotic activity in human SKOV3 cells assessed as increase in caspase3/7 positive cells at 25 uM measured after 24 hrs in presence of ABT-737 by DAPI staining based fluorescence microscopy analysis; format: functional, cell-based
[11] = Pro-apoptotic activity in human IGROV1-R10 cells assessed as accumulation at sub G1 phase at 15 uM incubated for 24 hrs by propidium iodide staining based flow cytometry analysis (reference value: 2 % ); format: functional
IGROV1-R10 [12] = assay: Pro-apoptotic activity in human IGROV1-R10 cells transfected with Bcl-xL siRNA assessed as increase in cleaved PARP expression at 25 uM measured after 24 hrs by Western blot analysis; format: functional, cell-based
[13] = Pro-apoptotic activity in human IGROV1-R10 cells assessed as accumulation at sub G1 phase at 10 uM incubated for 24 hrs in presence of ABT-737 by propidium iodide staining based flow cytometry analysis (reference value: 10.8% ); format: functional
[14] = Pro-apoptotic activity in human IGROV1-R10 cells transfected with control siRNA assessed as accumulation at sub G1 phase at 25 uM incubated for 24 hrs by propidium iodide staining based flow cytometry analysis (reference value: 4.5% ); format: functional
[15] = target: Induced myeloid leukemia cell differentiation protein Mcl-1 (Homo sapiens) (UniProt Q07820); assay: Inhibition of FAM-Bim peptide binding to MCL-1 in human MCF-7 cells assessed as disruption by BRET assay; format: cell-based; settings: MCF7
[16] = Pro-apoptotic activity in human IGROV1-R10 cells transfected with Bcl-xL siRNA assessed as accumulation at sub G1 phase at 15 uM incubated for 12 hrs by propidium iodide staining based flow cytometry analysis relative to control; format: functional
A549 [17] = assay: Pro-apoptotic activity in human A549 cells assessed as accumulation subG1 phase at 15 uM after 24 hrs by flow cytometry (reference value: 2.5%); format: functional
A549 [18] = assay: Pro-apoptotic activity in human A549 cells assessed as accumulation subG1 phase at 15 uM after 24 hrs in presence of ABT-737 by flow cytometry (reference value: 3.83%); format: functional
[19] = Pro-apoptotic activity in human IGROV1-R10 cells transfected with Bak and Bax siRNA assessed as accumulation at sub G1 phase at 15 uM incubated for 24 hrs in presence of ABT-737 by propidium iodide staining based flow cytometry analysis (reference value: 4.3% ); format: functional
[20] = Pro-apoptotic activity in human IGROV1-R10 cells transfected with Bcl-xL siRNA assessed as accumulation at sub G1 phase at 15 uM incubated for 24 hrs by propidium iodide staining based flow cytometry analysis relative to control; format: functional
A2780 [21] = assay: Pro-apoptotic activity in human A2780 cells assessed as increase in caspase3/7 positive cells at 15 uM measured after 24 hrs in presence of ABT-737 by DAPI staining based fluorescence microscopy analysis; format: functional, cell-based
[22] = Cytotoxicity against human AG1521 cells assessed as accumulation subG1 phase at 15 uM after 24 hrs in presence of ABT-737 by flow cytometry (reference value: 1.64%); format: cell-based; settings: ag1521, 24 h
SK-OV-3 [23] = assay: Pro-apoptotic activity in human SKOV3 cells assessed as increase in caspase3/7 positive cells at 15 uM measured after 24 hrs in presence of ABT-737 by DAPI staining based fluorescence microscopy analysis; format: functional, cell-based
IGROV1-R10 [24] = assay: Pro-apoptotic activity in human IGROV1-R10 cells transfected with Bcl-xL siRNA assessed as cleaved PARP expression at 15 uM incubated for 8 hrs by Western blot analysis; format: functional, cell-based
[25] = Pro-apoptotic activity in human IGROV1-R10 cells transfected with Bax siRNA assessed as accumulation at sub G1 phase at 15 uM incubated for 24 hrs in presence of ABT-737 by propidium iodide staining based flow cytometry analysis (reference value: 3.2% ); format: functional
[26] = Pro-apoptotic activity in human IGROV1-R10 cells transfected with Bcl-xL siRNA assessed as accumulation at sub G1 phase at 15 uM incubated for 6 hrs by propidium iodide staining based flow cytometry analysis relative to control; format: functional
IGROV1-R10 [27] = assay: Pro-apoptotic activity in human IGROV1-R10 cells transfected with Bcl-xL siRNA assessed as cleaved caspase-3 expression at 15 uM incubated for 8 hrs by Western blot analysis; format: functional, cell-based
IGROV1-R10 [28] = assay: Pro-apoptotic activity in human IGROV1-R10 cells assessed as cleaved PARP expression at 15 uM measured after 24 hrs in presence of ABT-737 by Western blot analysis; format: functional, cell-based
[29] = Pro-apoptotic activity in human IGROV1-R10 cells transfected with Bak and Bax siRNA assessed as accumulation at sub G1 phase at 15 uM incubated for 24 hrs by propidium iodide staining based flow cytometry analysis (reference value: 4.3%); format: functional
IGROV1-R10 [30] = assay: Induction of apoptosis in human IGROV1-R10 cells assessed as up regulation of NOXA by Western blot analysis; format: functional, cell-based
[31] = Cytotoxicity against human AG1521 cells assessed as accumulation subG1 phase at 15 uM after 24 hrs by flow cytometry (reference value: 1.7%); format: cell-based; settings: ag1521, 24 h
IGROV1-R10 [32] = assay: Pro-apoptotic activity in human IGROV1-R10 cells transfected with Bak siRNA assessed as cleaved PARP level at 15 uM incubated for 24 hrs in presence of ABT-737 by Western blot analysis; format: functional, cell-based
[33] = Cytotoxicity against human IGROV1-R10 cells transfected with siMCL1 at 15 uM after 24 hrs by fluorescence microscopic analysis; format: cell-based; settings: igrov1-r10, 24 h
[34] = Pro-apoptotic activity in human IGROV1-R10 cells transfected with Bak siRNA assessed as accumulation at sub G1 phase at 15 uM incubated for 24 hrs in presence of ABT-737 by propidium iodide staining based flow cytometry analysis (reference value: 3.4% ); format: functional
[35] = Pro-apoptotic activity in human IGROV1-R10 cells transfected with Bcl-xL siRNA assessed as accumulation at sub G1 phase at 15 uM incubated for 8 hrs by propidium iodide staining based flow cytometry analysis relative to control; format: functional
[36] = Pro-apoptotic activity in human IGROV1-R10 cells transfected with Bax siRNA assessed as accumulation at sub G1 phase at 15 uM incubated for 24 hrs by propidium iodide staining based flow cytometry analysis (reference value: 3.2% ); format: functional
IGROV1-R10 [37] = assay: Pro-apoptotic activity in human IGROV1-R10 cells assessed as cleaved caspase-3 expression at 15 uM measured after 24 hrs in presence of ABT-737 by Western blot analysis; format: functional, cell-based
[38] = Pro-apoptotic activity in human IGROV1-R10 cells transfected with Bak siRNA assessed as accumulation at sub G1 phase at 15 uM incubated for 24 hrs by propidium iodide staining based flow cytometry analysis (reference value: 3.4%); format: functional
[39] = Pro-apoptotic activity in human IGROV1-R10 cells transfected with Bcl-xL siRNA assessed as accumulation at sub G1 phase at 15 uM incubated for 4 hrs by propidium iodide staining based flow cytometry analysis relative to control; format: functional
IGROV1-R10 [40] = assay: Pro-apoptotic activity in human IGROV1-R10 cells transfected with Bak siRNA assessed as condensed nuclei at 15 uM incubated for 24 hrs in presence of ABT-737 by DAPI staining based fluorescence microscopic analysis; format: functional, cell-based
IGROV1-R10 [41] = assay: Pro-apoptotic activity in human IGROV1-R10 cells transfected with Bak siRNA assessed as cleaved caspase-3 level at 15 uM incubated for 24 hrs in presence of ABT-737 by Western blot analysis; format: functional, cell-based

Induced myeloid leukemia cell differentiation protein Mcl-1 (Homo sapiens), sequence (Q07820 whole entry): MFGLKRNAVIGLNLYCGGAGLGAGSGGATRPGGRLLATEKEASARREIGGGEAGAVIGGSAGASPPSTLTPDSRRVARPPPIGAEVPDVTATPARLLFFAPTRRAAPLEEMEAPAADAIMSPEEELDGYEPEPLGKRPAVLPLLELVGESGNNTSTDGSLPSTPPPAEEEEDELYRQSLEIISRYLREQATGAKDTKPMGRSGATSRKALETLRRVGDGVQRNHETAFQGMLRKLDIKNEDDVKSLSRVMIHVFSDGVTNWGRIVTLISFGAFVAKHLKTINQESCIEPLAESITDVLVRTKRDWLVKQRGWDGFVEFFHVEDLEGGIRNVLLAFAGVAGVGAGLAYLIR

SMILES: Cc1cc(-c2ncc(-c3cccnc3)cc2/C=C/c2ccccc2)cnc1-c1cccnc1
Activity [1]: 2.5%
Activity (A2780 [2]): Active
Activity [3]: 6.46%
Activity [4]: 70.99%
Activity [5]: 63.4%
Activity [6]: 36.1%
Activity (IGROV1-R10 [7]): inactive
Activity [8]: 62.76%
Activity (IGROV1-R10 [9]): Active
Activity (SK-OV-3 [10]): Active
Activity [11]: 4.9%
Activity (IGROV1-R10 [12]): Active
Activity [13]: 22.5%

SMILES: Cc1cc(-c2ncc(-c3cccc(CC(=O)O)c3)cc2/C=C/c2ccccc2)cnc1-c1cccnc1
Activity [5]: 31.7%
Activity [14]: 4.6%
Activity (IGROV1-R10 [7]): inactive
Activity [8]: 46.8%
Activity (IGROV1-R10 [9]): Active
Activity (IGROV1-R10 [12]): Active

SMILES: Cc1cc(-c2ncc(-c3cccc(O)c3)cc2/C=C/c2ccccc2)cnc1-c1cccnc1
Activity [5]: 19.9%
Activity [14]: 5.5%
Activity (IGROV1-R10 [7]): inactive
Activity [8]: 37.5%
Activity (IGROV1-R10 [9]): Active
Activity (IGROV1-R10 [12]): Active

SMILES: Cc1cc(-c2ncc(-c3cccnc3)cc2/C=C/c2ccccc2)cnc1-c1cccc(O)c1
Activity [5]: 35.9%
Activity [14]: 12.5%
Activity (IGROV1-R10 [7]): inactive
Activity [8]: 52.2%
Activity (IGROV1-R10 [9]): Active
Activity (IGROV1-R10 [12]): Active

inhibition [15]: inactive
SMILES: Cc1cc(-c2ncc(-c3cccnc3)cc2/C=C/c2ccccc2)cnc1-c1cccc(CC(=O)O)c1
Activity [5]: 7.8%
Activity [14]: 6%
Activity (IGROV1-R10 [7]): inactive
Activity [8]: 14.5%
Activity (IGROV1-R10 [9]): inactive
Activity (IGROV1-R10 [12]): Active

SMILES: Cc1cc(-c2ncc(-c3cccc(C/C(N)=N/O)c3)cc2/C=C/c2ccccc2)cnc1-c1cccnc1
Activity [5]: 28%
Activity [14]: 4.8%
Activity (IGROV1-R10 [7]): inactive
Activity [8]: 45.3%
Activity (IGROV1-R10 [9]): Active
Activity (IGROV1-R10 [12]): Active

SMILES: Cc1cc(-c2ncc(-c3cccc(CC#N)c3)cc2/C=C/c2ccccc2)cnc1-c1cccnc1
Activity [5]: 25.3%
Activity [14]: 53%
Activity (IGROV1-R10 [7]): inactive
Activity [8]: 36.9%
Activity (IGROV1-R10 [9]): Active
Activity (IGROV1-R10 [12]): Active

inhibition [15]: Active
SMILES: Cc1cc(-c2ncc(-c3cccnc3)cc2/C=C/c2ccccc2)cnc1-c1cccc(C/C(N)=N/O)c1
Activity [16]: 52.2%
Activity (A549 [17]): 12.93%
Activity (A549 [18]): 68.86%
Activity [19]: 27.9%
Activity [1]: 2.2%
Activity [20]: 64.8%
Activity (A2780 [21]): Active
Activity [3]: 40.69%
Activity [4]: 55.75%
Activity [5]: 91.3%
Activity [22]: 3.33%
Activity (SK-OV-3 [23]): Active
Activity (IGROV1-R10 [24]): Active
Activity [25]: 56.7%
Activity [6]: 57.43%
Activity [26]: 19.3%
Activity [14]: 47.8%
Activity (IGROV1-R10 [7]): Active
Activity [8]: 59%
Activity (IGROV1-R10 [9]): Active
Activity (IGROV1-R10 [27]): Active
Activity (IGROV1-R10 [28]): Active
Activity [29]: 6%
Activity (IGROV1-R10 [30]): Active
Activity [31]: 1.98%
Activity (IGROV1-R10 [32]): inactive
Activity [33]: Non-Toxic
Activity [11]: 2.8%
Activity [34]: 41%
Activity (IGROV1-R10 [12]): Active
Activity [35]: 35.2%
Activity [36]: 7%
Activity (IGROV1-R10 [37]): Active
Activity [13]: 34.3%
Activity [38]: 6.8%
Activity [39]: 14.1%
Activity (IGROV1-R10 [40]): inactive
Activity (IGROV1-R10 [41]): inactive

SMILES: Cc1cc(-c2ncc(-c3cccnc3)cc2/C=C/c2ccccc2)cnc1-c1cccc(CC#N)c1
Activity [5]: 35.1%
Activity [14]: 6.5%
Activity (IGROV1-R10 [7]): inactive
Activity [8]: 43%
Activity (IGROV1-R10 [9]): Active
Activity (IGROV1-R10 [12]): Active
